Data taken from article PMC6364417, “Kinase inhibitor library screening identifies synergistic drug combinations effective in sensitive and resistant melanoma cells” (Journal of Experimental & Clinical Cancer Research : CR, 2019).

How the values were obtained:
Test in all cases: Kinase inhibitor library screening, PrestoBlue cell viability, 1 or 10 μM, 72 h
[1] = tested on: IGR37-GP cells (Dabrafenib-resistant); conditions: IGR37 GP, 72 h; for cell viability, IGR37 GP, 1μΜ: in %
501Mel cells (parental) = conditions: 501Mel Parental, 72 h; for cell viability, 501Mel Parental, 1μΜ / cell viability, 501Mel Parental, 10μΜ: in %
Summary of the method: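 Two concentrations of every kinase inhibitor were tested on each melanoma line and its resistant counterparts, and cell survival was quantified by PrestoBlue against untreated wells.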

A375 cells (parental) = conditions: A375 Parental, 72 h; for cell viability, A375 Parental, 1μΜ / cell viability, A375 Parental, 10μΜ: in %
[2] = tested on: 501Mel-XP cells (Vemurafenib-resistant); conditions: 501Mel XP, 72 h; for cell viability, 501Mel XP, 1μΜ / cell viability, 501Mel XP, 10μΜ: in %
[3] = tested on: A375-GP cells (Dabrafenib-resistant); conditions: A375 GP, 72 h; for cell viability, A375 GP, 1μΜ / cell viability, A375 GP, 10μΜ: in %
IGR37 cells (parental) = conditions: IGR37 Parental, 72 h; for cell viability, IGR37 Parental, 1μΜ / cell viability, IGR37 Parental, 10μΜ: in %
[4] = tested on: A375-XP cells (Vemurafenib-resistant); conditions: A375 XP, 72 h; for cell viability, A375 XP, 1μΜ / cell viability, A375 XP, 10μΜ: in %
[5] = tested on: 501Mel-GP cells (Dabrafenib-resistant); conditions: 501Mel GP, 72 h; for cell viability, 501Mel GP, 1μΜ / cell viability, 501Mel GP, 10μΜ: in %
[6] = tested on: IGR37-XP cells (Vemurafenib-resistant); conditions: IGR37 XP, 72 h; for cell viability, IGR37 XP, 1μΜ: in %

Row | SMILES | cell viability (kinase inhibitor library screening) ([1]; 1μΜ) | cell viability (kinase inhibitor library screening) ([1]; 10μΜ) | cell viability (kinase inhibitor library screening) (501Mel cells (parental); 1μΜ) | cell viability (kinase inhibitor library screening) (501Mel cells (parental); 10μΜ) | cell viability (kinase inhibitor library screening) (A375 cells (parental); 10μΜ) | cell viability (kinase inhibitor library screening) (A375 cells (parental); 1μΜ) | cell viability (kinase inhibitor library screening) ([2]; 1μΜ) | cell viability (kinase inhibitor library screening) ([2]; 10μΜ) | cell viability (kinase inhibitor library screening) ([3]; 1μΜ) | cell viability (kinase inhibitor library screening) ([3]; 10μΜ) | cell viability (kinase inhibitor library screening) (IGR37 cells (parental); 1μΜ) | cell viability (kinase inhibitor library screening) (IGR37 cells (parental); 10μΜ) | cell viability (kinase inhibitor library screening) ([4]; 1μΜ) | cell viability (kinase inhibitor library screening) ([4]; 10μΜ) | cell viability (kinase inhibitor library screening) ([5]; 1μΜ) | cell viability (kinase inhibitor library screening) ([5]; 10μΜ) | cell viability (kinase inhibitor library screening) ([6]; 1μΜ) | cell viability (kinase inhibitor library screening) ([6]; 10μΜ) | cell viability, IGR37 GP, 10μΜ ([1]; 10μΜ) | cell viability, IGR37 GP, 1μΜ ([1]; 1μΜ) | further results
1 | Cn1cc(-c2ccc3ncc(Cc4ccc5ncccc5c4)n3n2)cn1 [NVP-BVU972] | 108.8% | 87.7% | 107.5% | 89.2% | 100.0% | 108.4% | 74.0% | 62.7% | 106.0% | 100.5% | 104.5% | 96.9% | 109.6% | 105.5% | 89.9% | 69.4% | 110.4% | 86.2% | – | – | –
2 | CNC(=O)c1ccccc1Nc1nc(Nc2ccc(N3CCOCC3)cc2OC)ncc1Cl [NVP-TAE226] | – | – | – | – | – | – | – | – | – | – | – | – | – | – | – | – | – | – | 3.7% | 59.0 | cell viability, 501Mel Parental, 1μΜ (501Mel cells (parental); 1μΜ): 69.2; cell viability, 501Mel Parental, 10μΜ (501Mel cells (parental); 10μΜ): 38.3; cell viability, A375 Parental, 1μΜ (A375 cells (parental); 1μΜ): 51.1; cell viability, A375 Parental, 10μΜ (A375 cells (parental); 10μΜ): 12.7; cell viability, 501Mel XP, 1μΜ ([2]; 1μΜ): 67.5; cell viability, 501Mel XP, 10μΜ ([2]; 10μΜ): 20.7; cell viability, A375 GP, 1μΜ ([3]; 1μΜ): 41.6; cell viability, A375 GP, 10μΜ ([3]; 10μΜ): 16.3; cell viability, IGR37 Parental, 1μΜ (IGR37 cells (parental); 1μΜ): 82.8; cell viability, IGR37 Parental, 10μΜ (IGR37 cells (parental); 10μΜ): 36.2; cell viability, A375 XP, 1μΜ ([4]; 1μΜ): 52.4; cell viability, A375 XP, 10μΜ ([4]; 10μΜ): 21.6; cell viability, 501Mel GP, 1μΜ ([5]; 1μΜ): 72.0; cell viability, 501Mel GP, 10μΜ ([5]; 10μΜ): 34.3; cell viability, IGR37 XP, 10μΜ ([6]; 10μΜ): 1.5%; cell viability, IGR37 XP, 1μΜ ([6]; 1μΜ): 34.8
3 | CCOc1cc2ncc(C#N)c(Nc3ccc(OCc4ccccn4)c(Cl)c3)c2cc1NC(=O)/C=C/CN(C)C [Neratinib (HKI-272)] | – | – | – | – | – | – | – | – | – | – | – | – | – | – | – | – | – | – | 21.6% | 81.2 | cell viability, 501Mel Parental, 1μΜ (501Mel cells (parental); 1μΜ): 96.7; cell viability, 501Mel Parental, 10μΜ (501Mel cells (parental); 10μΜ): 54.8; cell viability, A375 Parental, 1μΜ (A375 cells (parental); 1μΜ): 97.5; cell viability, A375 Parental, 10μΜ (A375 cells (parental); 10μΜ): 29.0; cell viability, 501Mel XP, 1μΜ ([2]; 1μΜ): 85.2; cell viability, 501Mel XP, 10μΜ ([2]; 10μΜ): 0.0171; cell viability, A375 GP, 1μΜ ([3]; 1μΜ): 93.4; cell viability, A375 GP, 10μΜ ([3]; 10μΜ): 4.2; cell viability, IGR37 Parental, 1μΜ (IGR37 cells (parental); 1μΜ): 96.7; cell viability, IGR37 Parental, 10μΜ (IGR37 cells (parental); 10μΜ): 66.7; cell viability, A375 XP, 1μΜ ([4]; 1μΜ): 89.5; cell viability, A375 XP, 10μΜ ([4]; 10μΜ): 10.7; cell viability, 501Mel GP, 1μΜ ([5]; 1μΜ): 103.4; cell viability, 501Mel GP, 10μΜ ([5]; 10μΜ): 64.1; cell viability, IGR37 XP, 10μΜ ([6]; 10μΜ): 9.6%; cell viability, IGR37 XP, 1μΜ ([6]; 1μΜ): 75.0
4 | Cc1cn(-c2cc(NC(=O)c3ccc(C)c(Nc4nccc(-c5cccnc5)n4)c3)cc(C(F)(F)F)c2)cn1 [Nilotinib (AMN-107)] | 98.8% | 35.4% | 89.8% | 71.1% | 66.2% | 102.9% | 84.0% | 54.3% | 96.3% | 48.3% | 95.3% | 73.7% | 87.0% | 57.9% | 99.9% | 74.5% | 100.2% | 1.4% | – | – | –
